Measured values from patent publication US9656990B2, “Cathepsin cysteine protease inhibitors” (Merck Sharp & Dohme Corp., priority 2014, dated 2017).

Key:
human cathepsin K = human cathepsin K (UniProt P43236, Y175D/V274L, species not given); experiment: Cathepsin K Assay; type: biochemical; conditions: IP from dose response curve; Z-Leu-Arg-AMC substrate, pH 5.5; read-out: hrbCat K (IP (nM))
human cathepsin F = molecular target: T1, human cathepsin F (Homo sapiens, UniProt Q9UBX1); experiment: Cathepsin F Assay; type: biochemical; conditions: IP from dose response curve; Z-Phe-Arg-AMC substrate, pH 5.5; read-out: hCat F (IP (nM))
T1 sequence (Q9UBX1 271-484): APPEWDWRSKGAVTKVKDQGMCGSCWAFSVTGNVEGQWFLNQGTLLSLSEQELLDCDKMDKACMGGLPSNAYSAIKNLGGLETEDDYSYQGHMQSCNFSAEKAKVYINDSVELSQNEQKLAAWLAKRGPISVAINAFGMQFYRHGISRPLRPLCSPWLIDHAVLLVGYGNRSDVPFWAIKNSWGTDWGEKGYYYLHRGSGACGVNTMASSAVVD
Method: Serial dilutions (1/3) from 500 μM down to 0.025 μM of test compounds were prepared in dimethyl sulfoxide (DMSO). Then 0.5 μL of DMSO from each dilution were added to 18.75 μL of assay buffer (MES, 50 mM (pH 5.5); EDTA, 2.5 mM; DTT, 2.5 mM and 10% DMSO) containing human cathepsin F (10 nM) in assay buffer solution. The assay solutions were mixed for 5-10 seconds on a shaker plate and incubated for 15 minutes at room temperature. Z-Phe-Arg-AMC (8 μM) in 6.25 μL of assay buffer was added to the assay solutions. Hydrolysis of the coumarin leaving group (AMC) was followed by spectrofluorometry (Exλ=360 nm; Emλ=460 nm) for 20 minutes. Percent of inhibition were calculated by fitting experimental values to standard mathematical model for dose response curve.

Structure (SMILES) | IC50 (human cathepsin K) [nM] | IC50 (human cathepsin F) [nM]
N#CC1(NC(=O)[C@@H]2C[C@@H](F)CC[C@H]2c2nn(-c3ccc(F)cn3)cc2-c2ccc(N3CCS(=O)(=O)CC3)cc2)CC1 [Example 10, (1R,2R,5S)—N-(1-Cyanocyclopropyl)-2-(4-(4-(1,1-dioxidothiomorpholino)phenyl)-1-(5-fluoropyridin-2-yl)-1H-pyrazol-3-yl)-5-fluorocyclohexanecarboxamide] | 0.89 | 1050
N#CC1(NC(=O)[C@@H]2CC(F)(F)CC[C@H]2c2nn(-c3ccc(F)cc3)c(CO)c2-c2ccc(N3CCS(=O)(=O)CC3)cc2)CC1 [Example 11, (1R,2R)—N-(1-Cyanocyclopropyl)-2-(4-(4-(1,1-dioxidothiomorpholino)phenyl)-1-(4-fluorophenyl)-5-(hydroxymethyl)-1H-pyrazol-3-yl)-5,5-difluorocyclohexanecarboxamide] | 1.41 | 125
N#CC1(NC(=O)[C@@H]2CC(F)(F)CC[C@H]2c2nn3ccccc3c2-c2ccc(C(=O)N3CCOCC3)cc2)CC1 [Example 13, (1R,2R)—N-(1-cyanocyclopropyl)-5,5-difluoro-2-(3-(4-(morpholine-4-carbonyl)phenyl)pyrazolo[1,5-a]pyridin-2-yl)cyclohexanecarboxamide] | 4.84 | 339
N#CC1(NC(=O)[C@@H]2C[C@@H](F)CC[C@H]2c2nn(-c3ccc(F)cn3)cc2-c2ccc(N3CCS(=N)(=O)CC3)cc2)CC1 [Example 14, (1R,2R,5S)-N-(1-cyanocyclopropyl)-5-fluoro-2-(1-(5-fluoropyridin-2-yl)-4-(4-(1-imino-1-oxidothiomorpholino)phenyl)-1H-pyrazol-3-yl)cyclohexanecarboxamide] | 2 | 2020
CN=S1(=O)CCN(c2ccc(-c3cn(-c4ccc(F)cc4)nc3[C@@H]3CC[C@H](F)C[C@H]3C(=O)NC3(C#N)CC3)cc2)CC1 [Example 15, (1R,2R,5S)-N-(1-cyanocyclopropyl)-5-fluoro-2-(1-(4-fluorophenyl)-4-(4-(1-(methylimino)-1-oxidothiomorpholino)phenyl)-1H-pyrazol-3-yl)cyclohexanecarboxamide] | 3 | 1780
N#CC1(NC(=O)[C@@H]2C[C@@H](F)CC[C@H]2c2nn(-c3ccc(F)cc3)cc2-c2ccc(N3CCS(=N)(=O)CC3)cc2)CC1 [Example 16, (1R,2R,5S)-N-(1-cyanocyclopropyl)-5-fluoro-2-(1-(4-fluorophenyl)-4-(4-(1-imino-1-oxidothiomorpholino)phenyl)-1H-pyrazol-3-yl)cyclohexanecarboxamide] | 2.83 | 2600
CN=S1(=O)CCN(c2ccc(-c3cn(-c4ccc(F)cn4)nc3[C@@H]3CC[C@H](F)C[C@H]3C(=O)NC3(C#N)CC3)cc2)CC1 [Example 17, (1R,2R,5S)-N-(1-cyanocyclopropyl)-5-fluoro-2-(1-(5-fluoropyridin-2-yl)-4-(4-(1-(methylimino)-1-oxidothiomorpholino)phenyl)-1H-pyrazol-3-yl)cyclohexanecarboxamide] | 3.22 | 1410
CC(C)(C)N=S1(=O)CCN(c2ccc(-c3cn(-c4ccc(F)cc4)nc3[C@@H]3CCCC[C@H]3C(=O)NC3(C#N)CC3)cc2)CC1 [Example 18, (1R,2R)-2-(4-(4-(1-(tert-butylimino)-1-oxidothiomorpholino)phenyl)-1-(4-fluorophenyl)-1H-pyrazol-3-yl)-N-(1-cyanocyclopropyl)cyclohex-anecarboxamide] | 5 | 1290
N#CN=S1(=O)CCN(c2ccc(-c3cn(-c4ccc(F)cc4)nc3[C@@H]3CCCC[C@H]3C(=O)NC3(C#N)CC3)cc2)CC1 [Example 19, (1R,2R)-N-(1-cyanocyclopropyl)-2-(4-(4-(1-(cyanoimino)-1-oxidothiomorpholino)phenyl)-1-(4-fluorophenyl)-1H-pyrazol-3-yl)cyclohexanecarboxamide] | 2.2 | 809
N#CC1(NC(=O)[C@@H]2CCC(F)(F)C[C@H]2c2nn(-c3ccc(F)cn3)cc2-c2ccc(N3CCS(=N)(=O)CC3)cc2)CC1 [Example 20, (1R,2R)-N-(1-cyanocyclopropyl)-4,4-difluoro-2-(1-(5-fluoropyridin-2-yl)-4-(4-(1-imino-1-oxidothiomorpholino)phenyl)-1H-pyrazol-3-yl)cyclohexanecarboxamide] | 6.81 | 1820
N#CC1(NC(=O)[C@@H]2CCCC[C@H]2c2nn3ccccc3c2-c2ccc(N3CCS(=O)(=O)CC3)cc2)CC1 [Example 21, (1R,2R)-N-(1-cyanocyclopropyl)-2-(3-(4-(1,1-dioxidothiomorpholino)phen-yl)pyrazolo[1,5-a]pyridin-2-yl)cyclohexanecarboxamide] | 9.56 | 6910
Cc1c(-c2ccc(N3CCS(=O)(=O)CC3)cc2)c([C@@H]2CCC(F)(F)C[C@H]2C(=O)NC2(C#N)CC2)nn1-c1ccc(F)cc1 [Example 26, (1R,2R)-N-(1-cyanocyclopropyl)-2-(4-(4-(1,1-dioxidothiomorpholino)phen-yl)-1-(4-fluorophenyl)-5-methyl-1H-pyrazol-3-yl)-5,5-difluorocyclohexanecarbox-amide] | 0.67 | 168
Cc1c(-c2ccc(N3CCS(=O)(=O)CC3)cc2)c([C@@H]2CCC(F)(F)C[C@H]2C(=O)NC2(C#N)CC2)nn1-c1ccc(F)cn1 [Example 27, (1R,2R)-N-(1-cyanocyclopropyl)-2-(4-(4-(1,1-dioxidothiomorpholino)phen-yl)-1-(5-fluoropyridin-2-yl)-5-methyl-1H-pyrazol-3-yl)-5,5-difluorocyclohexanecarbox-amide] | 1.28 | 170
N#CC1(NC(=O)[C@@H]2CC(F)(F)CC[C@H]2c2nn3ccccc3c2-c2ccc(N3CCS(=O)(=O)CC3)cc2)CC1 [Example 28, (1R,2R)-N-(1-cyanocyclopropyl)-2-(3-(4-(1,1-dioxidothiomorpholino)phen-yl)pyrazolo[1,5-a]pyridin-2-yl)-5,5-difluorocyclohexanecarbox-amide] | 1.94 | 363
N#CC1(NC(=O)[C@@H]2C[C@@H](F)CC[C@H]2c2nn(-c3ncccc3F)cc2-c2ccc(N3CCS(=O)(=O)CC3)cc2)CC1 [Example 29, (1R,2R,5S)-N-(1-cyanocyclopropyl)-2-(4-(4-(1,1-dioxidothiomorpholino)phen-yl)-1-(3-fluoropyridin-2-yl)-1H-pyrazol-3-yl)-5-fluorocyclohexanecarboxamide] | 6.2 | 6780
N#CC1(NC(=O)[C@@H]2CCCC[C@H]2c2nn(-c3ccc(F)cn3)c(CO)c2-c2ccc(N3CCS(=O)(=O)CC3)cc2)CC1 [Example 30, (1R,2R)-N-(1-cyanocyclopropyl)-2-(4-(4-(1,1-dioxidothiomorpholino)phen-yl)-1-(5-fluoropyridin-2-yl)-5-(hydroxymethyl)-1H-pyrazol-3-yl)cyclohexanecarboxamide] | 11 | 5870
Cc1c(-c2ccc(N3CCS(=O)(=O)CC3)cc2)c([C@@H]2CCC(F)(F)C[C@H]2C(=O)N[C@H](C#N)C(C)C)nn1-c1ccc(F)cn1 [Example 31, (1R,2R)-N-((S)-1-cyano-2-methylpropyl)-2-(4-(4-(1,1-dioxidothiomorpholino)phen-yl)-1-(5-fluoropyridin-2-yl)-5-methyl-1H-pyrazol-3-yl)-5,5-difluorocyclohexanecarbox-amide] | 1.63 | 115
